We go through two compounds from US11319273B2, “Lipophilic curcumin analogs and methods of inhibiting HIV-1, treating latent HIV in the brain, and preventing HIV-mediated cognitive decline and HIV dementia” (Howard University, priority 2012, dated 2022).

The subject of one data set is MAPK1. Put plainly: Effect on MAPK1 mRNA level in CEM cells. To be noted: CEM cells (FIG. 4). The data set is classed as cell-based. An excerpt:
(§1) Along with brain-derived neurotrophic factor (“BDNF”), protein kinase B (“AKT”), and mitogen-activated protein kinase 1 (“MAPK1”) (i.e., ERK1/2) genes are known to critically regulate cell survival and growth of neurons during development and the survival and function of adult neurons, as well as modulate synaptic transmission and plasticity. This example compares activities of natural curcumin and curcumin analog (1E,4E)-1,5-bis(4-hydroxy-3-methoxyphenyl)penta-1,4-dien-3-one on AKT, MAPK1 and […]. The analog was predicted to be more biologically soluble, absorbable, and more resistant to degradation than the natural curcumin. It has already been shown that natural curcumin increases the expression of BDNF in the hippocampus of rats. It was believed that, compared to natural curcumin, the analog would result in greater increase in the activities of these three neuroprotective genes as proof-of-principle of neuroprotection from latent HIV brain disease. The analysis was conducted on CEM cell lines, which are cells that are susceptible to HIV infection.

Another data set concerns AKT1. Put plainly: Effect on AKT1 mRNA level in CEM cells. The data set is classed as cell-based. The following applies: CEM cells (FIG. 4).
Excerpt: as §1

The subject of another data set is BDNF. Put plainly: Effect on BDNF mRNA level in CEM cells. The data set is classed as cell-based. To be noted: CEM cells (FIG. 4).
Excerpt: as §1

Data set [1] deals with vesicular stomatitus virus glycoprotein (VSVG) pseudotyped HIV-1 pNL 4-3 virus expressing luciferase (VSVG-HIV-1 Luc). The experiment in a line: microbe, parasite or virus in culture. The following applies: Human immunodeficiency virus 1, T-cell, 48 h, read-out: anti-HIV activity IC50.
For data set [2] the test system is unchanged.
Data set [3] in a line: Lipophilicity (octanol-water partition coefficient). The data set is classed as physicochemical. The source says: As used herein, lipophilicity refers to the affinity of a compound for a lipophilic environment. By one approach, lipophilicity can be determined using an octanol-water partition coefficient (Kow), which represents the ratio of the solubility of a compound in octanol (a non-polar solvent) to its solubility in water (a polar solvent). The higher the Kow, the more non-polar the compound. Log Kow values are generally inversely related to aqueous solubility and directly proportional to molecular weight. For purposes herein, lipophilicity values range between 0 to 10 and a value of at least 2.5 indicates good lipophilicity. A log Kow value less than 0 is considered hydrophilic.

Turning to `COc1cc(/C=C/C(=O)CC(=O)/C=C/c2ccc(O)c(OC)c2)ccc1O` [Natural curcumin, Curcumin], the “MAPK1 mRNA level” value in the data set on MAPK1 is listed as “slight increase”. In addition, in the data set with AKT1, the “AKT1 mRNA level” value is given as “slight increase”. For the same compound, the “BDNF mRNA level” value with BDNF is on record as “decrease”.
A word on the IC50: it is the point on the concentration scale where inhibition reaches its midpoint. On to `COc1cc(/C=C/C(=O)/C=C/c2ccc(O)c(OC)c2)ccc1O` [curcumin analog, (1E,4E)-1,5-bis(4-hydroxy-3-methoxyphenyl)penta-1,4-dien-3-one], for which, in data set [1], the half-inhibitory concentration (IC50) is 8 nM. In addition, in the data set on MAPK1, the “MAPK1 mRNA level” value was “significantly increased”. For the same compound, the “AKT1 mRNA level” value with AKT1 is “significantly increased”. For the same compound, in data set [2], the “inhibition of HIV-1 virus in vitro” value is listed as “able to inhibit HIV at the nanomolar level” and the “therapeutic index (IC50:cytotoxicity ratio) as compared to curcumin” value was “wider therapeutic index”. In data set [3], the lipophilicity result is given as “very lipophilic”. For the same compound, the “BDNF mRNA level” value in the data set with BDNF is listed as “significantly increased”.
